The values below come from patent US20240043400A1, “Octahydroisoquinolinyl Derivatives” (UCB Biopharma SRL, priority 2020, published 2024).

For one series, the target named is T1, CYP3A4 (Homo sapiens, UniProt P08684).
T1 construct: cryopreserved human microsomes (pooled donors); from tissue
Kind of series: In vitro assessment of CYP3A4 inhibition potential using cryopreserved human microsomes. The following applies: 20 μM compound, human microsomes 0.25 mg/ml, Table C; for inhibition at 15 min, 20 μM: human, cryopreserved human microsomes (pooled donors), probe midazolam 2.5 μM (1-hydroxymidazolam formation); for % CYP3A4 inhibition: midazolam 2.5 μM. It is filed as in vitro ADME. How it is done:
The objective of the human microsome assay is to characterize the inhibition potential of Compound of formula (I) by measuring the CYP3A4 activities after its co-incubation with midazolam, a specific CYP3A4 substrate.
To this aim, cryopreserved human microsomes (pooled donors) are divided on a 48 well collagen coated plate so that the final concentration is 0.25 mg/ml. The UCB compound is then added in the wells at 20 μM concentration in duplicate. After 30 min incubation, midazolam is added at 2.5 μM concentration. After 15 min, an aliquot is removed and placed into an equal volume of methanol containing internal standard. The samples are centrifuged at 2500 rpm at 4° C. for 20 min. An aliquot of supernatant is diluted with deionised water and levels of 1-hydroxymidazolam is quantified using generic LC MS/MS methods.
The concentrations are compared to those obtained after midazolam incubation at the same concentration but without UCB compound pre-incubation. The results are expressed as % of inhibition.

Series [1] deals with T2, human GABAA receptor α1β2 and γ2 subunits (Homo sapiens, UniProt P14867+P18507+P47870).
T2 construct: expressed in transfected cells
T2 sequence (P14867 28-456): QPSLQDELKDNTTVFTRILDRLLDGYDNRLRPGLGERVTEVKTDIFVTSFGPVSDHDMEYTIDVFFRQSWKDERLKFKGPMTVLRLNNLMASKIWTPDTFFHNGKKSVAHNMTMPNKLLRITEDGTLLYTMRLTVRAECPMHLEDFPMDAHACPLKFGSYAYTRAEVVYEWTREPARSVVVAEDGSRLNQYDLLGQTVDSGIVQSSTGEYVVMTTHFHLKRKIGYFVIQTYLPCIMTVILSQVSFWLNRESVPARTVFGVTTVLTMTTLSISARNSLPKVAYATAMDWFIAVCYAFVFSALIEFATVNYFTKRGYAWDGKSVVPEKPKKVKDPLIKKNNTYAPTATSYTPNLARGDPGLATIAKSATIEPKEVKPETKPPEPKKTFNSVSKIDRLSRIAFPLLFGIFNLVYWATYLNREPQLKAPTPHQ
T2 sequence (P47870 25-512 limits assumed): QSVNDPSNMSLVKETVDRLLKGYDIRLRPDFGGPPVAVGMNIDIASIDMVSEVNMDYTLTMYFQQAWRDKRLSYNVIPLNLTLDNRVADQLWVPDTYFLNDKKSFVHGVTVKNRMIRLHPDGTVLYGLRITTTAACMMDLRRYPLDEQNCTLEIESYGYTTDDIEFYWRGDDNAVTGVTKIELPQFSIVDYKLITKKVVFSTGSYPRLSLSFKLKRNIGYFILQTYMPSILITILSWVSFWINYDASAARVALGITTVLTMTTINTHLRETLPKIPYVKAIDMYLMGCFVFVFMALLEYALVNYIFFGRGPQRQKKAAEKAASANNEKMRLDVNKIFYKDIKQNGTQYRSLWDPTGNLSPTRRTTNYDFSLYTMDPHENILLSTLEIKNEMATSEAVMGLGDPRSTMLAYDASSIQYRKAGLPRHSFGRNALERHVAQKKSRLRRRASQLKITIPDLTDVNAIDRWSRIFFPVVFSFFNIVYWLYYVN
T2 sequence (P18507 40-475): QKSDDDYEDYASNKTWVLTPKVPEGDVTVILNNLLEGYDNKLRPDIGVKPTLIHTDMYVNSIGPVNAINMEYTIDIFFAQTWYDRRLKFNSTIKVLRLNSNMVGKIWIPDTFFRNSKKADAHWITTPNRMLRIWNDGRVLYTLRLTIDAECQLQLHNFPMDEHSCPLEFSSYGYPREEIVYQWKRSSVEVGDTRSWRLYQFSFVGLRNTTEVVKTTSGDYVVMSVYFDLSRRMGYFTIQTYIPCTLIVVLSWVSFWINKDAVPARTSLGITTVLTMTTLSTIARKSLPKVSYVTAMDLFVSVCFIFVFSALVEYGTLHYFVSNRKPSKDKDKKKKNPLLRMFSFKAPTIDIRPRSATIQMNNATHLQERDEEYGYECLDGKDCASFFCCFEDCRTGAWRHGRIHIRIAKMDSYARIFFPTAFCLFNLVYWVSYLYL
Kind of series: Automated patch clamp studies on the GABAA receptor cells. The following applies: 15 μM GABA, Table B; for inhibition at 10 µM: CHO-K1, 10 μM compound; for % GABAA inhibition: 10 μM compound, CHO-K1 cells. It is filed as cell-based. The method, then:
CHO-K1 cells stably expressing human GABAA receptor α1β2 and γ2 subunits were used. The cells were harvested using trypsin and maintained in serum-free medium at room temperature. The cells were washed and re-suspended in extracellular solution before testing.
Experiments on human GABAA (α1β2γ2) channels were conducted using an automated patch clamp assay (lonFlux™ HT). The external solution for recording GABAA currents was composed of sodium chloride 137 mM, potassium chloride 4 mM, calcium chloride 1.8 mM, magnesium chloride 1 mM, HEPES 10 mM, and glucose 10 mM. Both external and internal solutions were titrated with NaOH or KOH to obtain a pH of 7.35 and 7.3, respectively. The internal pipette solution contained potassium fluoride 70 mM, potassium chloride 60 mM, sodium chloride 70 mM, HEPES 5 mM, EGTA 5 mM, and Magnesium ATP 4 mM. The final concentration of vehicle used to dilute compounds was 0.33% DMSO in each well. Bicuculline (0.032 to 100 μM) was used as positive control inhibitor. GABA (15 μM) was used as agonist. All recordings were obtained from a holding potential of −60 mV.
The compound addition sequence was the following: one addition of the EC80 concentration of GABA was added to establish baseline response. Each concentration of compound was applied for 30 seconds followed by the addition of 15 μM GABA in the presence of the compound for 2 seconds. The process was repeated with the next ascending concentration of compound. Peak inward currents in response to the GABA additions in the presence of a single concentration of compound were measured. All compound data have been normalized to the baseline peak current induced by addition of 15 μM GABA for 2 seconds.
A general note: In patch-clamp work, channel activity is measured electrically.

For the next series, the target named is T3, dopamine D1 receptor (Homo sapiens, UniProt P21728).
T3 construct: host or cells: LMtk (Ltk-) mouse fibroblast cells, kept under Geneticin
T3 sequence (P21728 whole entry): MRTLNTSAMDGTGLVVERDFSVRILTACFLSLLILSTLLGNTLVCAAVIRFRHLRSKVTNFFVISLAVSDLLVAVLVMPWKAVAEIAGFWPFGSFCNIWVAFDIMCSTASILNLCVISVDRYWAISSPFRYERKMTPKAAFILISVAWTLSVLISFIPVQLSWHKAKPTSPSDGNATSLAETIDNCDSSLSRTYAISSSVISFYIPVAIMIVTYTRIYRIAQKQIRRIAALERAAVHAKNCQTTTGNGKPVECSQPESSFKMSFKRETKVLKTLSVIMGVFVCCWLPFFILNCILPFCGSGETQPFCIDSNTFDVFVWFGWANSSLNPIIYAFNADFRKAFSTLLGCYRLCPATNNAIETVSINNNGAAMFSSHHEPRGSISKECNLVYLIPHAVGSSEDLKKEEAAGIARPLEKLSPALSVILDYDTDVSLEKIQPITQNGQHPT
The experiment in a line: cAMP HTRF potentiation assay (in the presence of dopamine). Format: cell-based. The note with it: potentiation of cAMP with [EC20] of dopamine (1.1 nM); LMtk (Ltk−) mouse fibroblast cells expressing the dopamine D1 receptor. How it is done: The potentiation assay measures the ability of compounds to increase the levels of cAMP produced by a low-threshold concentration of dopamine. The concentration of dopamine used ([EC20]) is designed to produce 20% stimulation compared to the maximal response (100%) seen with increasing the concentration of dopamine. To measure this potentiation we incubate increasing concentrations of the compound with the [EC20] of dopamine and measure the potentiation as increases in cAMP production. The pEC50 of a compound is the −log 10 of the concentration of the compound which produces 50% of the potentiation of the cAMP levels and the Erel is the relative efficacy, defined as the maximal % potentiation produced by the compound compared to the maximal response produced by increasing concentrations of dopamine (Erel of 1=dopamine maximum response).
Cells were cultured at 37° C. in a humidified atmosphere of 5% CO2. Cells were grown in DMEM-F12+GlutaMAX™-1 medium (GIBCO®, Invitrogen, Merelbeke, Belgium) containing 10% fetal bovine serum (BioWhittaker®, Lonza, Verviers, Belgium), 400 μg/mL Geneticin (GIBCO®), 100 IU/mL Penicillin and 100 IU/mL Streptomycin (Pen-Strep solution, BioWhittaker®).
The measurement of changes in intracellular cyclic adenosinemonophopshpate (cAMP) was determined using the HTRF cAMP dynamic assay kit from CisBio (Codolet, France). Using homogenous time-resolved fluoresence technology, the assay is based on competition between native cAMP produced by cells and cAMP labelled with the dye d2. The tracer binding is determined by an anti-cAMP antibody labeled with cryptate. The effects of the compound alone (agonism) was determined by performing the assay in the absence of dopamine, whilst the effect of the compound as a positive allosteric modulator (PAM) was determined in the presence of an EC20 concentration of dopamine. Cells (20,000 per well) are incubated in 384 plates for 1 h at rt in a final volume of 20 μLHBSS (Lonza, with calcium, magnesium and HEPES buffer 20 mM, pH 7.4) containing: isobutyl methylxanthine (Sigma, 0.1 mM final), varying concentrations of test compound (typically 10^−9.5 M to 10^−4.5 M) in the presence and absence of dopamine (1.1 nM final). The reaction is then terminated and the cells lysed by adding the d2 detection reagent in lysis buffer (10 μL) and the cryptate reagent in lysis buffer (10 μL) according to manufacturer's instructions. This is then incubated for a further 60 min at rt and changes in HTRF fluorescent emission ratio determined according to manufacturer's instructions using an Envision plate reader (Perkin Elmer, Zaventem, Belgium) with laser excitation. All incubations were performed in duplicate and results were compared to a concentration-effect curve to dopamine. (10^−11 M to 10^−6 M).
Data was analyzed using Excel and PRISM (GraphPad Software) to obtain pEC50 and Erel using the 4-parameter logistic equation (DeLean et al, 1978) where Erel is the fitted maximal response of the test compound minus basal expressed as a percentage relative to that obtained with dopamine which was defined as 100%.
(TR-FRET usually uses a lanthanide donor and a delayed reading to cut background.)

T1 sequence (P08684 whole entry): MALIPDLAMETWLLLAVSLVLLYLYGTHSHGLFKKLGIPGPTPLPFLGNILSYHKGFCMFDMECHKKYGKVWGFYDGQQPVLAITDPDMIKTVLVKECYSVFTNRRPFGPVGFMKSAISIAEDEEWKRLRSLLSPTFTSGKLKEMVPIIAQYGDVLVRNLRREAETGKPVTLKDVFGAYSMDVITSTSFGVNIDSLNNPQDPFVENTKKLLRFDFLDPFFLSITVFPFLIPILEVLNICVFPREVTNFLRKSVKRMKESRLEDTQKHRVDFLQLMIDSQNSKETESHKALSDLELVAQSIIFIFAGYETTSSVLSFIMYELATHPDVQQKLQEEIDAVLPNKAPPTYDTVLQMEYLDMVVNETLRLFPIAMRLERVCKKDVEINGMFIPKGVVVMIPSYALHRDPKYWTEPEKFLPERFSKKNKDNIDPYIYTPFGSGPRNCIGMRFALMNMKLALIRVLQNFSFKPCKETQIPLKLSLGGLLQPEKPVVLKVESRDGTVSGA

Usually inhibition stands for how much of the control response was suppressed. Low values mean a response near the control, high ones a response far below the control. A word on the EC50: it is the concentration giving half of the maximal effect. Compound `COc1ccc(C#N)c(CC(=O)N2CC[C@@H]3[C@H](CCC[C@H]3C(O)C(F)F)[C@@H]2C)c1Cl` (single isomer, unassigned) [Example 6-A] showed an inhibition at 15 min, 20 μM against CYP3A4 of 20 to 40%. At 10 µM the inhibition in series [1] was 8.6%. Besides, the EC50 on dopamine D1 receptor is 50.1 nM.

Turning to `COc1ccc(C#N)c(CC(=O)N2CC[C@@H]3[C@H](CCC[C@H]3C(O)C(F)F)[C@@H]2C)c1Cl` (single isomer, unassigned) [Example 6-B], the “% CYP3A4 inhibition” value on CYP3A4 was “++++ (A percentage of inhibition greater than about 20% and lower than or equal to about 40% is indicated by ++++.)”. Further, the “% GABAA inhibition” value in series [1] came out at 10.9%. Also, the EC50 on dopamine D1 receptor is 200 nM.

In the case of `COc1ccc(C#N)c(CC(=O)N2CC[C@@H]3[C@H](CCC[C@H]3C(C)(O)C(F)(F)F)[C@@H]2C)c1Cl` (single isomer, unassigned) [Example 7-A], the inhibition at 15 min, 20 μM on CYP3A4 lay within 20 to 40%. Also, the “% GABAA inhibition” value in series [1] stood at 7.4%. Further, at dopamine D1 receptor, the EC50 is 251 nM.

Turning to `C[C@H]1[C@H]2CCCC([C@@H](O)C(F)(F)F)[C@@H]2CCN1C(=O)Cc1c(Cl)ccc2c1c(Cl)nn2C` (single isomer, unassigned) [Example 8-A], the inhibition at 15 min, 20 μM against CYP3A4 was in the range of 20 to 40%. The “% GABAA inhibition” value in series [1] was determined as 2.0%. On dopamine D1 receptor, the EC50 was 79.4 nM.

Consider `C[C@H]1[C@H]2CCCC([C@@H](O)C(F)(F)F)[C@@H]2CCN1C(=O)Cc1c(Cl)ccc2c1c(Cl)nn2C` (single isomer, unassigned) [Example 8-B], for which the “% CYP3A4 inhibition” value at CYP3A4 is “+++ (A percentage of inhibition greater than about 40% and lower than or equal to about 60% is indicated by +++.)”. The “% GABAA inhibition” value in series [1] is −1.2%. Also, at dopamine D1 receptor, the concentration for a half-maximal effect (EC50) is 126 nM.

`CC(O)c1ncc(Cl)c(CC(=O)N2CC[C@H]3[C@H]([C@H](O)C(F)(F)F)CCC[C@@H]3[C@@H]2C)c1Cl` (single isomer, unassigned) [Example 9-A]: at CYP3A4, the inhibition at 15 min, 20 μM fell in the range of 20 to 40%. The “% GABAA inhibition” value in series [1] is −14.1%. Also, at dopamine D1 receptor, the EC50 is 39.8 nM.

As for `CC(O)c1ncc(Cl)c(CC(=O)N2CC[C@H]3[C@H]([C@H](O)C(F)(F)F)CCC[C@@H]3[C@@H]2C)c1Cl` (single isomer, unassigned) [Example 9-B], the “% CYP3A4 inhibition” value on CYP3A4 was “++++ (A percentage of inhibition greater than about 20% and lower than or equal to about 40% is indicated by ++++.)”. The “% GABAA inhibition” value in series [1] is on record as −8.4%. The EC50 on dopamine D1 receptor was 25.1 nM.

On CYP3A4, `C[C@H]1[C@H]2CCC[C@@H]([C@H](O)C(F)(F)F)[C@@H]2CCN1C(=O)Cc1c(Cl)cnc(C(O)C(F)F)c1Cl` (single isomer, unassigned) [Example 15-A] yielded an inhibition at 15 min, 20 μM of at most 20%. Also, the EC50 on dopamine D1 receptor was 39.8 nM.

As for `COc1ccc(C#N)c(CC(=O)N2CC[C@H]3[C@H]([C@H](O)C(F)(F)F)CCC[C@@H]3[C@@H]2C)c1Cl` [Example 1-A, 2-[2-[(1S,4aR,5R,8aS)-1-methyl-5-[(1S)-2,2,2-trifluoro-1-hydroxy-ethyl]-3,4,4a,5,6,7,8,8a-octahydro-1H-isoquinolin-2-yl]-2-oxo-ethyl]-3-chloro-4-methoxybenzonitrile], the inhibition at 15 min, 20 μM on CYP3A4 is 60 to 70%. Also, the inhibition at 10 µM in series [1] worked out at 11.2%. For the same compound, the EC50 at dopamine D1 receptor was 31.6 nM.

In the case of `COc1ccc(C#N)c(CC(=O)N2CC[C@H]3[C@H]([C@@H](O)C(F)(F)F)CCC[C@@H]3[C@@H]2C)c1Cl` [Example 1-B, 2-[2-[(1S,4aR,5R,8aS)-1-methyl-5-[(1R)-2,2,2-trifluoro-1-hydroxy-ethyl]-3,4,4a,5,6,7,8,8a-octahydro-1H-isoquinolin-2-yl]-2-oxo-ethyl]-3-chloro-4-methoxybenzonitrile], the inhibition at 15 min, 20 μM at CYP3A4 lay within 40 to 60%. Also, the inhibition at 10 µM in series [1] is 4.9%. Also, at dopamine D1 receptor, the EC50 was 398 nM.

Regarding `COc1ccc(Cl)c(CC(=O)N2CC[C@H]3[C@H]([C@H](O)C(F)(F)F)CCC[C@@H]3[C@@H]2C)c1C#N` [Example 2, 2-[2-[(1S,4aR,5R,8aS)-1-methyl-5-[(1S)-2,2,2-trifluoro-1-hydroxyethyl]-3,4,4a,5,6,7,8,8a-octahydro-1H-isoquinolin-2-yl]-2-oxoethyl]-3-chloro-6-methoxybenzonitrile], the inhibition at 15 min, 20 μM at CYP3A4 is 20 to 40%. This compound also gave an inhibition at 10 µM in series [1] of 0%. The EC50 on dopamine D1 receptor is 39.8 nM.

On to `COc1ncc(Cl)c(CC(=O)N2CC[C@H]3[C@H]([C@H](O)C(F)(F)F)CCC[C@@H]3[C@@H]2C)c1Cl` [Example 3, 1-[(1S,4aR,5R,8aS)-1-methyl-5-[(1S)-2,2,2-trifluoro-1-hydroxy-ethyl]-3,4,4a,5,6,7,8,8a-octahydro-1H-isoquinolin-2-yl]-2-(3,5-dichloro-2-methoxypyridin-4-yl)ethanone], for which the inhibition at 15 min, 20 μM against CYP3A4 was in the range of 60 to 70%. Besides, the inhibition at 10 µM in series [1] came to 13.8%. In addition, at dopamine D1 receptor, the EC50 is 25.1 nM.

On to `C[C@H]1[C@H]2CCC[C@@H]([C@H](O)C(F)(F)F)[C@@H]2CCN1C(=O)Nc1c(Cl)cccc1Cl` [Example 10, (1S,4aR,5R,8aS)—N-(2,6-dichlorophenyl)-1-methyl-5-[(1S)-2,2,2-trifluoro-1-hydroxy-ethyl]-3,4,4a,5,6,7,8,8a-octahydro-1H-isoquinoline-2-carboxamide], for which the inhibition at 15 min, 20 μM on CYP3A4 lay within 20 to 40%. Also, testing at 10 µM in series [1] gave an inhibition of 8.5%. Moreover, the EC50 on dopamine D1 receptor is 12.6 nM.

On to `C[C@H]1[C@H]2CCC[C@@H]([C@H](O)C(F)(F)F)[C@@H]2CCN1C(=O)Cc1c(Cl)ccc2nnc(Cl)n12` [Example 11, 1-[(1 S,4aR,5R,8aS)-1-methyl-5-[(1 S)-2,2,2-trifluoro-1-hydroxy-ethyl]-3,4,4a,5,6,7,8,8a-octahydro-1H-isoquinolin-2-yl]-2-(3,6-dichloro-[1,2,4]triazolo[4,3-a]pyridin-5-yl)ethanone], for which the inhibition at 15 min, 20 μM at CYP3A4 is 70 to 80%. The same compound gave an inhibition at 10 µM in series [1] of 6%. For the same compound, at dopamine D1 receptor, the EC50 is 63.1 nM.
